Source: patent US6461997B1, “Triazole sulfones having herbicidal activity” (Monsanto Technology LLC, priority 1999, dated 2002)

Key:
STEME (common chickweed) = assay: Pre-emergence herbicidal activity, cool season; type: in vivo, Stellaria media; details: lowest tested rate with 80% or greater inhibition; rates 300, 100, 30, 10 g/ha; about 14 days
How it was run: (§1)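 GR80 values derive from percent inhibition relative to untreated plants, read roughly 14 days after sowing and pre-emergence soil-surface treatment (compound in 50:50 acetone/water; rates typically 10, 30, 100, 300 g/ha). Warm-season weeds grew at 30/21° C day/night, cool-season ones at 18/13° C; an asterisk marks activity without reaching 80% at the highest rate.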

POLCO (wild buckwheat) = assay: Pre-emergence herbicidal activity, cool season; type: in vivo, Polygonum convolvulus; details: lowest tested rate with 80% or greater inhibition; rates 300, 100, 30, 10 g/ha; about 14 days
How it was run: (§2)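 Under 18/13 °C (ALOMY, POLCO) or 30/21 °C (PANMI, DIGSA) day/night, pre-emergence soil-surface treatments at 300, 100, 30 and 10 g/ha were evaluated after roughly 14 days. GR80 reflects percent inhibition relative to untreated plants.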

[1] = test system: LAMPU (purple deadnettle); assay: Pre-emergence herbicidal activity, cool season; type: in vivo, Lamium purpureum; details: lowest tested rate with 80% or greater inhibition; rates 300, 100, 30, 10 g/ha; about 14 days
How it was run: as §1

[2] = test system: GALAP (catchweed bedstraw); assay: Pre-emergence herbicidal activity, cool season; type: in vivo, Galium aparine; details: lowest tested rate with 80% or greater inhibition; rates 300, 100, 30, 10 g/ha; about 14 days
How it was run: as §1

SASKR (russian thistle) = assay: Pre-emergence herbicidal activity, cool season; type: in vivo, Salsola kali; details: lowest tested rate with 80% or greater inhibition; rates 300, 100, 30, 10 g/ha; about 14 days
How it was run: as §1

SINAR (wild mustard) = assay: Pre-emergence herbicidal activity, cool season; type: in vivo, Sinapis arvensis; details: lowest tested rate with 80% or greater inhibition; rates 300, 100, 30, 10 g/ha; about 14 days
How it was run: as §1

ABUTH (velvetleaf) = assay: Pre-emergence herbicidal activity, warm season; type: in vivo, Abutilon theophrasti; details: GR80 = lowest tested rate (300, 100, 30, 10 g/ha) with 80% or greater inhibition; approx. 14 days after treating; 30/21° C.
Experimental: (§3) Tables 5 to 8 summarize results of tests conducted as described below to determine the pre-emergence herbicidal activity, in the form of a GR80 value, of illustrative compounds of this invention. […] Compounds of the invention were typically applied at rates of 300, 100, 30, and 10 g/ha. Where herbicidal activity was evident but 80% inhibition was not achieved at the highest rate tested, an asterisk (*) is shown in the following tables.
(§4) The pre-emergence tests were conducted by the following procedure. Topsoil was sieved to pass through a 1.27 cm screen. Fertilizer was added to the topsoil and the mixture was then sterilized by heating. The topsoil mixture was placed in a pot and compacted to a depth of 1.0 to 1.25 cm from the top of the pot. Seeds of each of several monocotyledonous and dicotyledonous annual plant species were placed on top of the soil. Additional soil was subsequently placed over the seeds to level-fill the pot. A known amount of each test compound dissolved or suspended in an appropriate organic solvent was diluted with a 50:50 mix of acetone and water and applied to the surface of the soil. After treatment the plants were placed in a greenhouse where they received 0.64 cm of overhead irrigation. All subsequent watering consisted of a light overhead mist and/or subirrigation as needed for germination and growth. Tables 5 and 6 below relate to warm season plant species which were placed after pre-emergence treatment in a greenhouse with a 30/21° C. day/night temperature regime. Tables 7 and 8 below relates to cool season plant species placed after pre-emergence treatment in a greenhouse or growth chamber with an 18/13° C. day/night temperature regime.
(§5) Approximately 14 days after planting and treating, the plants were observed and herbicidal efficacy recorded as percent inhibition by comparison with untreated plants.
(§6) The plant species usually regarded as weeds which were utilized in the tests are identified in the tables below according to the following legend, in which “d” indicates a dicotyledonous species and “m” a monocotyledonous species. All monocotyledonous species included in the tests herein are grasses.

[3] = test system: VERPE (creeping speedwell); assay: Pre-emergence herbicidal activity, cool season; type: in vivo, Veronica persicaria; details: lowest tested rate with 80% or greater inhibition; rates 300, 100, 30, 10 g/ha; about 14 days
How it was run: as §1

LOLMG (annual ryegrass) = assay: Pre-emergence herbicidal activity, cool season; type: in vivo, Lolium multiflorum; details: GR80 = lowest tested rate (300, 100, 30, 10 g/ha) with 80% or greater inhibition; approx. 14 days after treating; 18/13° C.
Experimental: as §3, §4, §5, §6

DIGSA (large crabgrass) = assay: Pre-emergence herbicidal activity, warm season; type: in vivo, Digitaria sanguinalis; details: GR80 = lowest tested rate (300, 100, 30, 10 g/ha) with 80% or greater inhibition; approx. 14 days after treating; 30/21° C.
Experimental: as §3, §4, §5, §6

[4] = test system: PANMI (wild proso millet); assay: Pre-emergence herbicidal activity, warm season; type: in vivo, Panicum miliaceum; details: GR80 = lowest tested rate (300, 100, 30, 10 g/ha) with 80% or greater inhibition; approx. 14 days after treating; 30/21° C.
How it was run: as §2

[5] = test system: AGSST (creeping bentgrass); assay: Pre-emergence herbicidal activity, cool season; type: in vivo, Agrostis stolonifera; details: GR80 = lowest tested rate (300, 100, 30, 10 g/ha) with 80% or greater inhibition; approx. 14 days after treating; 18/13° C.
How it was run: as §1

SETVI (green foxtail) = assay: Pre-emergence herbicidal activity, cool season; type: in vivo, Setaria viridis; details: GR80 = lowest tested rate (300, 100, 30, 10 g/ha) with 80% or greater inhibition; approx. 14 days after treating; 18/13° C.
How it was run: as §1

[6] = test system: BRAPP (broadleaf signalgrass); assay: Pre-emergence herbicidal activity, warm season; type: in vivo, Brachiaria platyphylla; details: GR80 = lowest tested rate (300, 100, 30, 10 g/ha) with 80% or greater inhibition; approx. 14 days after treating; 30/21° C.
Experimental: as §3, §4, §5, §6

AMARE (redroot pigweed) = assay: Pre-emergence herbicidal activity, warm season; type: in vivo, Amaranthus retroflexus; details: GR80 = lowest tested rate (300, 100, 30, 10 g/ha) with 80% or greater inhibition; approx. 14 days after treating; 30/21° C.
Experimental: as §3, §4, §5, §6

ALOMY (blackgrass) = assay: Pre-emergence herbicidal activity, cool season; type: in vivo, Alopecurus myosuroides; details: GR80 = lowest tested rate (300, 100, 30, 10 g/ha) with 80% or greater inhibition; approx. 14 days after treating; 18/13° C.
Experimental: as §3, §4, §5, §6

[7] = test system: CHEAL (common lambsquarters); assay: Pre-emergence herbicidal activity, warm season; type: in vivo, Chenopodium album; details: GR80 = lowest tested rate (300, 100, 30, 10 g/ha) with 80% or greater inhibition; approx. 14 days after treating; 30/21° C.
Experimental: as §3, §4, §5, §6

SORVU (shattercane) = assay: Pre-emergence herbicidal activity, warm season; type: in vivo, Sorghum vulgare; details: GR80 = lowest tested rate (300, 100, 30, 10 g/ha) with 80% or greater inhibition; approx. 14 days after treating; 30/21° C.
Experimental: as §3, §4, §5, §6

ECHCG (barnyardgrass) = assay: Pre-emergence herbicidal activity, warm season; type: in vivo, Echinochloa crus-galli; details: GR80 = lowest tested rate (300, 100, 30, 10 g/ha) with 80% or greater inhibition; approx. 14 days after treating; 30/21° C.
How it was run: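 Seeds sown in sterilised fertilised topsoil received surface-applied compound in 50:50 acetone/water, typically at 300, 100, 30 and 10 g/ha, then greenhouse-grown at 30/21° C (warm-season species) or 18/13° C (cool-season species). Percent inhibition versus untreated plants was scored at about 14 days, giving GR80; an asterisk marks activity short of 80% at the top rate.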

[8] = test system: SORHA (johnsongrass (seedling)); assay: Pre-emergence herbicidal activity, warm season; type: in vivo, Sorghum halepense; details: GR80 = lowest tested rate (300, 100, 30, 10 g/ha) with 80% or greater inhibition; approx. 14 days after treating; 30/21° C.
Experimental: as §3, §4, §5, §6

[9] = test system: CIRAR (canada thistle (seedling)); assay: Pre-emergence herbicidal activity, warm season; type: in vivo, Cirsium arvense; details: GR80 = lowest tested rate (300, 100, 30, 10 g/ha) with 80% or greater inhibition; approx. 14 days after treating; 30/21° C.
Experimental: as §3, §4, §5, §6

SETFA (giant foxtail) = assay: Pre-emergence herbicidal activity, warm season; type: in vivo, Setaria faberi; details: GR80 = lowest tested rate (300, 100, 30, 10 g/ha) with 80% or greater inhibition; approx. 14 days after treating; 30/21° C.
Experimental: as §3, §4, §5, §6

POROL (common purslane) = assay: Pre-emergence herbicidal activity, warm season; type: in vivo, Portulaca oleracea; details: GR80 = lowest tested rate (300, 100, 30, 10 g/ha) with 80% or greater inhibition; approx. 14 days after treating; 30/21° C.
Experimental: as §3, §4, §5, §6

SOLNI (black nightshade) = assay: Pre-emergence herbicidal activity, warm season; type: in vivo, Solanum nigrum; details: GR80 = lowest tested rate (300, 100, 30, 10 g/ha) with 80% or greater inhibition; approx. 14 days after treating; 30/21° C.
Experimental: as §3, §4, §5, §6

| SMILES | Pre-emergence activity GR80, STEME (STEME (common chickweed)) | Pre-emergence activity GR80, POLCO (POLCO (wild buckwheat)) | Pre-emergence activity GR80, LAMPU [1] | Pre-emergence activity GR80, GALAP [2] | Pre-emergence activity GR80, SASKR (SASKR (russian thistle)) | Pre-emergence activity GR80, SINAR (SINAR (wild mustard)) | Pre-emergence activity (GR80) ABUTH (ABUTH (velvetleaf)) [g/ha] | Pre-emergence activity GR80, VERPE [3] [g/ha] | Pre-emergence activity (GR80) LOLMG (LOLMG (annual ryegrass)) [g/ha] | Pre-emergence activity (GR80) DIGSA (DIGSA (large crabgrass)) [g/ha] | Pre-emergence activity (GR80) PANMI [4] [g/ha] | Pre-emergence activity (GR80) AGSST [5] [g/ha] | Pre-emergence activity (GR80) SETVI (SETVI (green foxtail)) [g/ha] | Pre-emergence activity (GR80) AMARE (AMARE (redroot pigweed)) [g/ha] | Pre-emergence activity (GR80) ALOMY (ALOMY (blackgrass)) [g/ha] | Pre-emergence activity (GR80) SOLNI (SOLNI (black nightshade)) [g/ha] | other results |
| --- | --- | --- | --- | --- | --- | --- | --- | --- | --- | --- | --- | --- | --- | --- | --- | --- | --- |
| C#CCN(C)C(=O)n1cnc(S(=O)(=O)C(F)(F)C(F)F)n1 [Example 66] | [empty] | 300 g/ha | [empty] | [empty] | 300 g/ha | [empty] | 300 | 100 |  |  |  |  |  |  |  |  |  |
| CCCN(CC)C(=O)n1cnc(S(=O)(=O)C(F)F)n1 [Example 28] | 10 g/ha | [empty] | 30 g/ha | 30 g/ha | 30 g/ha | 10 g/ha |  | 10 | 300 | 300 | 300 | 30 | 30 | 300 | 30 |  | Pre-emergence activity (GR80) BRAPP [6]: 300 g/ha |
| CN(C(=O)n1cnc(S(=O)(=O)C(F)F)n1)C1CCCCC1 [Example 32] | 300 g/ha | [empty] | [empty] | 100 g/ha | [empty] | 100 g/ha |  | 300 | 300 | 300 | 300 | 300 | 100 | 300 | 300 | 300 | Pre-emergence activity (GR80) CHEAL [7]: 300 g/ha; Pre-emergence activity (GR80) SORVU (SORVU (shattercane)): 300 g/ha; Pre-emergence activity (GR80) ECHCG (ECHCG (barnyardgrass)): 300 g/ha; Pre-emergence activity (GR80) SORHA [8]: 30 g/ha; Pre-emergence activity (GR80) CIRAR [9]: 300 g/ha; Pre-emergence activity (GR80) SETFA (SETFA (giant foxtail)): 300 g/ha; Pre-emergence activity (GR80) POROL (POROL (common purslane)): 100 g/ha |
| CCSC(F)(F)S(=O)(=O)c1ncn(C(=O)N(C)OC)n1 [Example 57] | 30 g/ha | 100 g/ha | [empty] | 300 g/ha | 30 g/ha | 30 g/ha |  | 10 | 30 | 300 |  |  | 300 |  | 300 |  |  |
| CN(Cc1ccccc1)C(=O)n1cnc(S(=O)(=O)C(F)(F)Br)n1 [Example 44] | [empty] | [empty] | [empty] | [empty] | [empty] | [empty] | 300 | 100 |  |  | 300 |  |  |  |  | 30 |  |
